Data from patent US20120149080A1, “YEAST PRODUCTION CULTURE FOR THE PRODUCTION OF BUTANOL” (Butamax(TM) Advanced Biofuels LLC, priority 2010, published 2012).
Read-outs that look alike come from different tables or passages of the source.

Key:
[1] = test system: Saccharomyces cerevisiae BY4743; test: 24 hour survival (CFU) at low and high cell density; format: cell-based
Method: Saccharomyces cerevisiae BY4743 (ATCC 201390) was plated from a freezer vial onto YPD agar (Teknova, Hollister, Calif.; Cat. #Y1000) and incubated overnight at 30° C. Cells from the YPD plate were inoculated into a 25 ml pre-culture of YPD broth (Teknova; Cat. #Y5000) with an initial OD600 of 0.06 to 0.08. The pre-culture was grown for 7 hours in an aerobic shaker at 30° C. An aliquot of the pre-culture was inoculated into 200 ml of YPD broth, with an initial OD600 of 0.06 to 0.08, and this culture was incubated with aeration at 30° C. for approximately 17 hours. The optical density of the culture was measured, the culture was centrifuged and the cells were resuspended to yield an OD600 of 5 in fresh YPD broth. This is referred to as a high cell density (HCD) culture. […] This is referred to as a low the cell density (LCD) culture. These cultures were incubated at 30° C. with shaking for 30 minutes for an acclimation period. At the end of the 30 minute acclimation period, the OD600 was measured. 5 ml of low or high cell density culture was dispensed to 15 ml conical tubes which contained different concentrations of the alcohol to be tested. A control tube included no alcohol. The tubes were placed in a rotary drum at 30° C. and incubated for 24 hours. The time of addition of cells was referred to as “time 0”. […] Colony forming units (CFUs) were determined on YPD plates at time 0 for the control and at 24 hours for each of the cultures, including the control culture, using standard microbiological methods. […] Colonies were counted after 48 hours, and CFUs/ml were calculated. At time 0, the low cell density cultures had about 4.8×10^5 CFUs/ml, and the high cell density cultures had about 5.4×10^7 CFUs/ml.

Yeast cultures = conditions: 1% butanol
Method: Survival was measured by assaying the number of colony forming units (CFU), which is a measure of live cells.

[2] = 2.0% (w/v) alcohol, high cell density
[3] = 2.0% (w/v) alcohol, low cell density

CCO [Ethanol, ethanol]
Percent Survival HCD (%) [1, 2]: 62.5%
Percent Survival LCD (%) [1, 3]: 100.0%
Percent Survival HCD (%) ([1]; 4% (w/v) alcohol, high cell density): 50.2%
Percent Survival LCD (%) ([1]; 4% (w/v) alcohol, low cell density): 100.0%
Percent Survival HCD (%) ([1]; 5% (w/v) alcohol, high cell density): 38.9%
Percent Survival LCD (%) ([1]; 5% (w/v) alcohol, low cell density): 25.3%

butanol
survival rate compared to control culture without butanol (Yeast cultures; high cell density cultures): at least 40%
survival rate compared to control culture without butanol (Yeast cultures; low cell density cultures (100-fold fewer cells)): up to 13%

CCC(C)O (centres unmarked) [2-Butanol, 2-butanol]
Percent Survival HCD (%) [1, 2]: 27.6%
Percent Survival LCD (%) [1, 3]: 0.3%
Percent Survival HCD (%) ([1]; 3% (w/v) alcohol, high cell density): 18.9%
Percent Survival LCD (%) ([1]; 3% (w/v) alcohol, low cell density): 0.1%
Percent Survival HCD (%) ([1]; 3.5% (w/v) alcohol, high cell density): <0.001%
Percent Survival LCD (%) ([1]; 3.5% (w/v) alcohol, low cell density): <0.001%

CCCCO [1-Butanol, 1-butanol]
Percent Survival HCD (%) ([1]; 1.0% (w/v) alcohol, high cell density OD600 5): 72.2%
Percent Survival LCD (%) ([1]; 1.0% (w/v) alcohol, low cell density OD600 0.05): 1.3%
Percent Survival HCD (%) ([1]; 1.5% (w/v) alcohol, high cell density): 57.3%
Percent Survival LCD (%) ([1]; 1.5% (w/v) alcohol, low cell density): 0.4%
Percent Survival HCD (%) [1, 2]: 3.6%
Percent Survival LCD (%) [1, 3]: 0.1%
